Experimental data taken from patent US7563467B2, “Use of an Opuntia ficus-indica extract and compounds isolated therefrom for protecting nerve cells” (Korea Institute of Science and Technology, priority 2001, dated 2009).
Converted amounts (≈) assume the structure as drawn. “Also recorded” adds a separate entry of the source. Marks after values point to notes of the source that are not given here.

Experiments:
[1] = DPPH radical scavenging activity (electron donating ability); conditions: for DPPH radical scavenging activity (IC50): isolated compounds
[2] = tested on: primary cultured rat cerebrocortical neurons; experiment: Inhibition of hydrogen peroxide-induced neurotoxicity (LDH release); format: cell-based, Sprague-Dawley rat; conditions: for IC50: Cerebrocortical neuron
Procedure: (§1) Namely, the cerebral cortices of Sprague-Dawley rat embryos at 16-18 days of gestation were isolated, and meninges […] removed therefrom using a dissecting microscope. The tissue thus obtained was separated into single cells by trituration using a Pasteur pipette in a medium (MEM, Gibco BRL) containing 25 mM glucose, 5% FBS, 5% horse serum and 2 mM L-glutamine. […] A portion of the culture solution was replaced with a fresh culture media twice per week, and cultures were treated with 10 μM cytosine arabinoside for 24 to 72 hours at day 7 to 9 after planting to inhibit the growth of non-neuronal cells. The cultured cells at day 10 to 14 after planting were used in experiments. […] Data were calculated as percentages of the control LDH activity in the culture medium exposed to the respective oxidative insult in the absence of test principles. The inhibitory activity of a test sample for the oxidative nerve cell damage was calculated from the amount of released LDH relative to that of an unchanged control.

[3] = tested on: primary cultured rat cerebrocortical neurons; experiment: Inhibition of xanthine/xanthine oxidase-induced neurotoxicity (LDH release); format: cell-based, Sprague-Dawley rat; conditions: for IC50: Cerebrocortical neuron, isolated compounds, rat cerebrocortical neurons, LDH
Procedure: as §1

[4] = Superoxide anion radical scavenging activity (xanthine/xanthine oxidase, NBT); conditions: for Superoxide anion radical scavenging activity (IC50): isolated compounds
Procedure: Test sample solutions of various concentrations were each mixed with 0.1 mM xanthine, 0.1 mM EDTA, 50 μg/Ml bovine serum albumin (BSA), 25 mM nitroblue tetrazolium (NBT), 40 mM Na2CO3 and 7×10^−3 unit XOD to a final concentration of 200 μl and reacted at 25° C. for 20 min. 6.6 μl of 6 mM CuCl2 was added to the reaction mixture to stop the reaction, and the absorbance of the reaction mixture was measured at 560 nm to determine the amount of formazane.

[5] = tested on: cultured rat cerebral hippocampus cells and cortex cells; experiment: Inhibition of NMDA-induced neurotoxicity (LDH release); format: cell-based, SD rat; conditions: for inhibition at 9 µg/mL / inhibition at 30 µg/mL: Rattus norvegicus, 100 μM NMDA; for inhibition at 9 µg/mL: 9 μg/Ml; for inhibition at 30 µg/mL: 30 μg/Ml
Procedure: The hippocampus and cortex were extracted from the cerebral tissue of 17-day old fetus of a pregnant SD rat using a microscope. The extracted hippocampus and cortex were each separated into discrete single cells using a pipette, and the cells obtained therefrom by centrifuging were inoculated into a 96-well plate coated with poly-L-lysine. […] After 72 hours incubation, the medium was replaced with the same medium but lacking glutamate, and the cells were further incubated. […] The cultured cells prepared in Reference Example 6 were treated with 100 μM NMDA (Sigma) for 2 hours to induce cerebral cell damage, with or without the presence of a fixed amount of a test sample. After 24 hours, the amount of LDH released into the culture solution was measured using an LDH measuring kit (Boehringer Mannheim).

[6] = tested on: rat model of transient focal cerebral ischemic damage; experiment: Transient focal cerebral ischemia (middle cerebral artery occlusion and reperfusion), TTC infarction volume and swelling; format: in vivo, Sprague-Dawley rat; conditions: one day after occlusion; for Corrected total infarction volume: corrected for swelling; for Corrected total infarction volume / Swelling ratio: rat MCAO, 10 mg/kg intraperitoneally; for Infarction volume, cerebral cortex / Infarction volume, corpus striatum / Infarction volume, total: rat MCAO 120 min and reperfusion, 10 mg/kg intraperitoneally about 30 min after ischemia
[7] = tested on: rat model of transient focal cerebral ischemic damage; experiment: Neurological score after middle cerebral artery occlusion; conditions: for Neurological score: 10 point means normal, average ± standard error
[8] = tested on: cultured rat cerebral hippocampus cells and cortex cells; experiment: Inhibition of growth factor withdrawal-induced neurotoxicity (LDH release); format: cell-based, SD rat
Procedure: The hippocampus and cortex were extracted from the cerebral tissue of 17-day old fetus of a pregnant SD rat using a microscope. The extracted hippocampus and cortex were each separated into discrete single cells using a pipette, and the cells obtained therefrom by centrifuging were inoculated into a 96-well plate coated with poly-L-lysine. […] After 72 hours incubation, the medium was replaced with the same medium but lacking glutamate, and the cells were further incubated. […] The cultured cells prepared in Reference Example 6 were cultured in […] containing 2% B27 supplementary nutrient, and then, the culture solution was replaced with the same […] but lacking B27 supplementary nutrient to induce cell death caused by undernutrition. After 24 hours, the amount of LDH released by cell necrosis was measured using an LDH measuring kit (Boehringer Mannheim) to quantify the extent of cell death.

[9] = isolated compounds, rat cerebrocortical neurons, LDH
[10] = 30 min after occlusion of middle cerebral artery
[11] = 24 hour after occlusion of middle cerebral artery, 10 mg/kg intraperitoneally

SMILES	DPPH radical scavenging activity (IC50) [1]	IC50 [2, 9]	IC50 [3]	Superoxide anion radical scavenging activity (IC50) [4]	DPPH radical scavenging activity (in words) [1]	Inhibition of hydrogen peroxide-induced neurotoxicity (in words) [2]	Inhibition of NMDA-induced neurotoxicity (in words) [5]	inhibition at 9 µg/mL [5]	inhibition at 30 µg/mL [5]	Corrected total infarction volume [6]	Infarction volume, cerebral cortex [6]	Infarction volume, corpus striatum [6]	Infarction volume, total [6]	Swelling ratio [6]	Neurological score [7, 10]	Neurological score [7, 11]	Inhibition of xanthine/xanthine oxidase-induced neurotoxicity (in words) [3]	Superoxide anion radical scavenging activity (in words) [4]	further results
O=C1c2c(O)cc(O)cc2O[C@H](c2ccc(O)cc2)[C@H]1O [Dihydrokaempferol, dihydrokaempferol]	>50 µg/mL	> 300 µg/mL	> 300 µg/mL	>50 µg/mL															
O=C1c2c(O)cc(O)cc2O[C@H](c2ccc(O)c(O)c2)[C@H]1O [Dihydroquercetin, dihydroquercetin]	4.49 µg/mL	7.8 µg/mL (≈ 25.6 µM)	16.6 µg/mL (≈ 54.6 µM)	2.48 µg/mL	potent	strongly inhibit	inhibit	33%	47%	130.7 ± 13.1 mm^3	169.4 ± 12.7 mm^3	30.1 ± 4.3 mm^3	199.5 ± 16.5 mm^3	11.9 ± 0.5%	2.33 ± 0.16	3.00 ± 0.33	strongly inhibit	potent	
COc1c(-c2ccc(O)cc2)oc2cc(O)cc(O)c2c1=O [Kaempferol 3-methyl ether, kaempferol 3-methyl ether]	>50 µg/mL			>50 µg/mL															Inhibition of hydrogen peroxide-induced neurotoxicity (IC50) [2, 9]: >300 µg/mL
O=c1c(O)c(-c2ccc(O)cc2)oc2cc(O)cc(O)c12 [Kaempferol, kaempferol]	>50 µg/mL	29.7 µg/mL (≈ 104 µM)	24.9 µg/mL (≈ 87 µM)	>50 µg/mL		strongly inhibit											strongly inhibit		
COc1c(-c2ccc(O)c(O)c2)oc2cc(O)cc(O)c2c1=O [Quercetin 3-methyl ether, quercetin 3-methyl ether]	3.76 µg/mL	0.6 µg/mL (≈ 1.9 µM)	0.65 µg/mL (≈ 2.06 µM)	4.77 µg/mL	potent	strongly inhibit; also recorded: highest inhibitory activity	inhibit	21%	54%	81.6 ± 17.8* mm^3	81.2 ± 20.8* mm^3	28.9 ± 3.1 mm^3	110.1 ± 22.9* mm^3	5.8 ± 0.7 %	2.36 ± 0.15	4.81 ± 0.44	strongly inhibit; also recorded: highest inhibitory activity	potent	Inhibition of growth factor withdrawal-induced neurotoxicity (in words) [8]: inhibited; inhibition at 9 µg/mL ([8]; Rattus norvegicus, 9 μg/Ml): 31%; inhibition at 30 µg/mL ([8]; Rattus norvegicus, 30 μg/Ml): 86%; Neurological score compared with the control (in words) [7]: significantly higher
O=c1c(O)c(-c2ccc(O)c(O)c2)oc2cc(O)cc(O)c12 [Quercetin, quercetin]	2.89 µg/mL	4.1 µg/mL (≈ 13.6 µM)	5.5 µg/mL (≈ 18.2 µM)	>50 µg/mL	potent	strongly inhibit				110.6 ± 15.8 mm^3	130.5 ± 18.6 mm^3	30.1 ± 4.9 mm^3	161.1 ± 21.4 mm^3	9.1 ± 1.1%	2.44 ± 0.24	4.56 ± 0.53	strongly inhibit		
